Experiments:
[1] = Nanoparticle size, polydispersity index and surface potential by light scattering; assay type: physicochemical
Procedure: In general, the nanoparticles thus obtained have a mean size ranging from 30 to 650 nm, in particular from 30 to 500 nm and in particular from 50 to 250 nm, or even from 100 to 200 nm, measured by light scattering using a Coulter® N4MD nanosizer from Coulter Electronics, Hialeah, USA.
4 mg of squalenoylpaclitaxel are dissolved in […] of ethanol (2.5 mg/ml) and added dropwise with continuous stirring (speed of 500 rpm) to 1 ml of an aqueous solution containing 5% dextrose. The squalenoylpaclitaxel self-assembles in the form of nanoparticles with a size of between 100 and 200 nm. The ethanol is then completely evaporated off under reduced pressure using a Rotavapor® to obtain a nanoparticulate suspension of squalenoylpaclitaxel at a final concentration of 4 mg/ml.
Variable amounts (stated in Table 1 below) of squalenoylpaclitaxel are dissolved in 0.25 ml of tetrahydrofuran (THF). The solutions obtained are added dropwise with continuous stirring (speed of 500 rpm) to 0.25 ml of water. The squalenoylpaclitaxel precipitates in the form of nanoparticles between 100 and 200 nm in size. The THF is then completely evaporated off under reduced pressure using a Rotavapor® to obtain nanoparticulate squalenoylpaclitaxel suspensions whose size varies as a function of the concentration (see the table below).
100 μl of squalenoyldeoxyspergualine dissolved in ethanol (4 mg/ml) are added dropwise to 2 ml of distilled water with vigorous stirring. After evaporating off the ethanol under reduced pressure using a Rotavapor®, a suspension of nanoparticles 162 nm in size (polydispersity index 0.12 characterized by a surface potential of 27.38±2.60 mV) is obtained.
The mean size of the nanoparticles and the polydispersity index of the nanoparticles are determined at a temperature of 20° C. by light scattering with a zetasizer machine (Malvern Instruments, UK). The measurements are taken after diluting the nanoparticle suspension in MilliQ® water.

[2] = tested on: M109 subcutaneous tumoral model (murine pulmonary tumor); assay: In vivo anticancer activity, M109 subcutaneous tumoral model; conditions: 160 mg·kg^−1 i.v. for 5 consecutive days, CD2F1 mice, FIG. 2
Description: CD2F1 mice (4-5 weeks old) weighing about 15-18 g were used for this study. The mice are fed with standard mouse feed and water ad libitum. The M109 subcutaneous tumoral model (murine pulmonary tumor) is developed by injecting the M109 cells at exponential growth (1×10^6 cells) as a suspension, under the skin, into the lower portion of the abdomen of the mice. A palpable tumor (about 50-100 mm^3) is allowed to grow at the site of injection. The tumor-bearing mice are divided into 2 groups of 5-6, i.e. the untreated mice and the mice treated with squalenoyldiglycolyl-paclitaxel nanoparticles 160 mg·kg^−1 (injected intravenously for 5 consecutive days). The mice are controlled regularly to check the difference in the volume of the tumors, and thus to evaluate the anticancer efficacy.

[3] = tested on: Madison's 109 (M109) murine pulmonary tumor cell line; assay: In vitro anticancer activity, MTT test on M109 cells; assay type: cell-based; conditions: 72 hours, nanoparticles, read-out: 50% inhibitory concentration (IC50)
Procedure: (§1) The in vitro anticancer activity of the conjugates of squalenoyl/paclitaxel type in the form of nanoparticles is performed on Madison's 109 (M109) murine pulmonary tumor cell line. The M109 cells are cultured in RPMI 1640, supplemented with 10% fetal calf serum, 50 U·ml^−1 of penicillin and 50 μg·ml^−1 of streptomycin and 2 mM of L-glutamine. This analysis is performed using the 3-[4,5-dimethylthiazol-2-yl]-3,5-diphenyltetrazolium bromide (MTT) test, which measures the mitochondrial dehydrogenase activity. The cells in exponential growth phase are inoculated into a 96-well plate and preincubated for 24 hours at 37° C. in a humidified atmosphere with 5% CO2 in the air. Various dilutions of paclitaxel nanoparticles are added to the cells in the culture medium. Each dilution is tested three times. After 72 hours at 37° C., 200 μL of MTT solution in the cell culture medium (0.5 mg/ml) are added to each well. After incubating for 2 hours 30 minutes at 37° C., the culture medium is removed and the formazan crystals obtained are dissolved in 200 μL of an extraction solution (dimethyl sulfoxide). The absorbing power of the transformed dyestuff, which is proportional to the number of viable cells, is measured at 570 nm using a microplate reader (Metertech Σ 960, Fisher Bioblock, Illkirch, France). The percentage of surviving cells is calculated by determining the ratio of the absorbing power between the treated cells and the untreated cells.

KB 3.1 cells = assay: Tubulin immunofluorescence (spindle-poisoning activity) by confocal fluorescence microscopy; assay type: cell-based, human; conditions: nanoparticles 5 μM, 14-16 hours, FIG. 1B
Procedure: The characterization of this activity is performed by immunofluorescence according to the following protocol:
Day 1: KB 3.1 cells originating from a human cervical carcinoma, and HT-29 cells corresponding to a human colon cancer cell line, are deposited on 6-well plates at a density of 20 000 cells/well (final volume 2 ml RPMI plus FCS). The cells are incubated at a temperature of 37° C. and at 5% CO2.
Day 2: The cells are rinsed and the squalenoylpaclitaxel nanoparticles (concentration 5 μM) as prepared according to the protocol described in Example 3 are added thereto.
Day 3: After 14-16 hours, rinsing is performed twice with PBS and the extraction solution (Triton X-100 plus 0.5% PEM-PIPES 100 mM, EGTA 2 mM, MgCl2 2 mM, pH 6.8) is then added. After 4 minutes, rinsing is performed, followed by addition of 2 ml of a 3% solution of formaldehyde in PEM. 40 minutes later, rinsing is performed and 20% FCS in PBS is added over 30 minutes. Murine anti-α-tubulin FITC monoclonal antibody (diluted to 1:200) is then added and the mixture is incubated for 1 hour. It is finally rinsed with PBS and an analysis by confocal fluorescence microscopy (Leica TCS SP2) is performed.

mice (C57BL6) = assay type: in vivo; conditions: 4 mg/ml suspension i.v., 4×50 mg/kg (paclitaxel equivalent)
Procedure: The nanoparticulate squalenoylpaclitaxel suspension as prepared in Example 3 (4 mg/ml) is directly injected intravenously into mice (C57BL6) at a dose of 4×50 mg/kg (paclitaxel equivalent); the injections take place on days 0, 5, 9 and 14. […] The direct intravenous injection of the Taxol solution (without dilution in 0.9% NaCl) leads to the immediate death of 100% of the treated mice. When the Taxol solution is prediluted in 0.9% NaCl, the maximum dose that can be injected is 20 mg/kg.

[4] = tested on: L1210 WT murine leukemia cell line; assay: In vitro anticancer activity, MTT test on L1210 WT cells; assay type: cell-based; conditions: Mus musculus, 72 hours, nanoparticles, read-out: 50% inhibitory concentration (IC50)
Procedure: as §1, with “After incubating for 2 hours 30 minutes at 37° C., the culture medium is removed and the formazan crystals obtained are dissolved in 200 μL of an extraction solution (dimethyl sulfoxide).” left out
The in vitro anticancer activity of the squalenoyldoxorubicin nanoparticles is evaluated on an L1210 WT murine leukemia cell line. […]

[5] = tested on: L1210 aggressive metastatic leukemia model; assay: In vivo anticancer activity, L1210 aggressive metastatic leukemia model; conditions: 13 mg·kg^−1 i.v. on days 1, 7 and 14, DBA/2 mice
Description: DBA/2 mice (4 to 5 weeks old) weighing about 15-18 g were used for this study. As for Example 17, the mice are fed with standard mouse feed and water ad libitum. The L1210 aggressive metastatic leukemia model (a murine leukemia) is developed by intravenously injecting the L1210 cells at exponential growth (0.1×10^6 cells) as a suspension, into the mice. The tumor-bearing mice are divided into 2 groups of 5-6, i.e. the untreated mice and the mice treated with squalenoyldoxorubicin nanoparticles (13 mg·kg^−1, injected intravenously on days 1, 7 and 14, after injection of the tumor cells). After treatment, the mice are controlled regularly to check the differences in weight and the survival rate, these parameters making it possible to evaluate the efficacy of the anticancer activity.

[6] = 20° C., zetasizer, diluted in MilliQ water, compositions of Example 15
[7] = Example 9: 100 μl of 4 mg/ml ethanol solution added to 2 ml distilled water

In the case of “Squalenoyldiglycolyl-paclitaxel [Example 11]”, the Mean particle diameter [1, 6] is reported as 150.0 nm, the Polydispersity index [1, 6] is reported as 0.075 and the “Anticancer activity: progression of tumor volume” value [2] is reported as “show anticancer activity by controlling the progression of the M109 tumors”. For the same molecule, the IC50 [3] was 175 nM.
Work on “Squalenoylsuccinyl-PEG340-paclitaxel [Example 12]” yielded a Mean particle diameter [1, 6] of 643.9 nm, a Polydispersity index [1, 6] of 0.081 and an IC50 [3] of 490 nM.
In the case of squalenoylC22-paclitaxel [Example 13], the Mean particle diameter [1, 6] is reported as 239.3 nm, the Polydispersity index [1, 6] is reported as 0.077 and the IC50 [3] is reported as 7300 nM.
“squalenoylsuccinylpaclitaxel [Example 10]” showed a Mean particle diameter [1, 6] of 250.9 nm, a Polydispersity index [1, 6] of 0.061 and an IC50 [3] of 72 nM.
Work on `CC(C)=CCC/C(C)=C/CC/C(C)=C/CC/C=C(\C)CC/C=C(\C)CCC(=O)NCCCNCCCCNC(=O)C(O)NC(=O)CCCCCCNC(=N)N` (stereo not drawn) [squalenoyldeoxyspergualine] yielded a Polydispersity index [1, 7] of 0.12, a Size of nanoparticles [1, 7] of 162 nm and a Surface potential [1, 7] of 27.38±2.60 mV.
With monosqualenoylpaclitaxel the “Formation of tubulin lumps (spindle-poisoning activity)” value (KB 3.1 cells) was “formation of tubulin lumps is clearly visible”, the Signs of toxicity (mice (C57BL6); days 0, 5, 9 and 14, C57BL6 mice) was “do not show any sign of toxicity” and the Mortality (mice (C57BL6); days 0, 5, 9 and 14, period of at least one month) was “No mortality is recorded”. For the same molecule, the Polydispersity index ([1]; 0.36 mmol squalenoylpaclitaxel in 0.25 ml THF added to 0.25 ml water) was 0.39, the Polydispersity index ([1]; 0.88 mmol squalenoylpaclitaxel in 0.25 ml THF added to 0.25 ml water) was 0.30 and the Polydispersity index ([1]; 1.76 mmol squalenoylpaclitaxel in 0.25 ml THF added to 0.25 ml water) was 0.31. It also gave a Diameter ([1]; 0.36 squalenoylpaclitaxel in 0.25 ml THF added to 0.25 ml water) of 151 ± 84 nm, a Diameter ([1]; 0.88 squalenoylpaclitaxel in 0.25 ml THF added to 0.25 ml water) of 169 ± 92 nm and a Diameter ([1]; 1.76 squalenoylpaclitaxel in 0.25 ml THF added to 0.25 ml water) of 177 ± 99 nm.
Molecule `COc1cccc2c1C(=O)c1c(O)c3c(c(O)c1C2=O)CC(O)(C(=O)COC(=O)CC/C(C)=C/CC/C(C)=C/CC/C=C(\C)CC/C=C(\C)CCC=C(C)C)CC3OC1CC(N)C(O)C(C)O1` (stereo not drawn) [Example 14, 14-squalenoyldoxorubicin] has an IC50 [4] of 291 nM, a Mean particle diameter [1, 6] of 138.2 nm and a Polydispersity index [1, 6] of 0.325. The “Anticancer activity (variations in weight of mice)” value ([5]; FIG. 3) was “demonstrate effective anticancer activity” and the Survival rate ([5]; FIG. 4) was “improved survival rate”.

Source: patent US8962552B2, “Nanoparticles of therapeutic agents having low water solubility” (Centre Nationale de Recherche Scientifique, priority 2007, dated 2015)
